From article PMC11876671, “Investigating blood–brain barrier penetration and neurotoxicity of natural products for central nervous system drug development” (Scientific Reports, 2025)
Where a name gives a salt, the structure may show the parent alone.

Assay: in vitro
Settings: PAMPA, PAMPA-BBB Pe

| Structure (SMILES) | Papp |
| --- | --- |
| COC(=O)c1c(C)cc(O)c(C)c1O [VERAMOSS] | 225 ×10⁻⁶ cm/s |

Same assay, conditions: PAMPA, PAMPA-BBB Pe(10^-6 cm/sec)

| Structure (SMILES) | Papp |
| --- | --- |
| CN(C)[C@@H]1C(O)=C(C(N)=O)C(=O)[C@@]2(O)C(O)=C3C(=O)c4c(O)ccc(Cl)c4[C@@](C)(O)[C@H]3C[C@@H]12 [[…]] | < 1 ×10⁻⁶ cm/s |
| CO[C@@H]1[C@H](O)[C@@H](CO)O[C@H]1n1cnc2c(=O)[nH]c(N)nc21 [2'-O-METHYLGUANOSINE] | < 1 ×10⁻⁶ cm/s |
| CC(C)C/C=C(\C=O)c1ccccc1 [(Z)-5-METHYL-2-PHENYL-HEX-2-ENAL] | < 1 ×10⁻⁶ cm/s |
| O=c1cccc2n1C[C@@H]1CNC[C@H]2C1 [CYTISINE] | < 1 ×10⁻⁶ cm/s |
| CNc1ccccc1C(=O)O | 1.5 ×10⁻⁶ cm/s |
| COc1ccc(C[C@H](N)C(=O)N[C@@H]2[C@@H](CO)OC(n3cnc4c(N(C)C)ncnc43)[C@@H]2O)cc1 (some centres unmarked) [PUROMYCIN MONOHYDROCHLORIDE] | < 1 ×10⁻⁶ cm/s |
| C[C@H]1C[C@H]2[C@@H]3CCC4=CC(=O)C=C[C@]4(C)[C@H]3C(=O)C[C@]2(C)[C@@]1(O)C(=O)CO [MEPREDNISONE] | 3.7 ×10⁻⁶ cm/s |
| CN(C)[C@@H]1C(O)=C(C(N)=O)C(=O)[C@@]2(O)C(O)=C3C(=O)c4c(O)ccc(Cl)c4[C@@H](O)[C@H]3C[C@@H]12 [DEMECLOCYCLINE HYDROCHLORIDE] | 1.5 ×10⁻⁶ cm/s |

Same assay, conditions: PAMPA, PAMPA-BBB Pe(10^-6 cm/sec), Table S3: compounds exhibiting low PAMPA-BBB permeability

| Structure (SMILES) | Papp |
| --- | --- |
| C[C@@H]1O[C@@H](O[C@H]2[C@H](Oc3cc(O)c4c(=O)cc(-c5ccc(O)cc5)oc4c3)O[C@H](CO)[C@@H](O)[C@@H]2O)[C@H](O)[C@H](O)[C@H]1O [RHOIFOLIN] | < 1 ×10⁻⁶ cm/s |
| CC1=C(/C=C/C(C)=C/C=C/C(C)=C/C=C/C=C(C)/C=C/C=C(C)/C=C/C2=C(C)CCCC2(C)C)C(C)(C)CCC1 [BETA CAROTENE] | 9.2 ×10⁻⁶ cm/s |
| CC1=C(CC/C(C)=C/CCC2=CC[C@H](C3=CC(=O)O[C@H]3O)O[C@H]2O)C(C)(C)CCC1 [MANOALIDE] | < 1 ×10⁻⁶ cm/s |
| Nc1ncnc2c1ccn2[C@@H]1O[C@H](CO)[C@@H](O)[C@H]1O [TUBERCIDIN] | 2.1 ×10⁻⁶ cm/s |
| COc1cc(C(O)CN)ccc1O (centres unmarked) [NORMETADRENALINE HYDROCHLORIDE] | < 1 ×10⁻⁶ cm/s |
| Cn1cnc(N)c2ncnc1-2 [3-METHYL-6-AMINOPURINE] | < 1 ×10⁻⁶ cm/s |
| OC[C@H]1O[C@@H](OC[C@H]2O[C@@H](OC/C=C/c3ccccc3)[C@H](O)[C@@H](O)[C@@H]2O)[C@@H](O)[C@@H]1O [ROSARIN] | < 1 ×10⁻⁶ cm/s |
| CC(C)C1=CC2=CC[C@@H]3[C@](C)(CCC[C@@]3(C)C(=O)O)[C@H]2CC1 [SODIUM ABIETATE] | < 1 ×10⁻⁶ cm/s |
| O=C(O)/C=C/c1ccccc1 [CINNAMIC ACID] | < 1 ×10⁻⁶ cm/s |
| O=C(O)c1cc(N(Cc2ccccc2O)Cc2ccccc2O)ccc1O [L[…]] | 5.9 ×10⁻⁶ cm/s |
| O=C(O)c1ccc2c(c1)OCO2 [PIPERONYLIC ACID] | < 1 ×10⁻⁶ cm/s |
| Oc1cc(O)cc(/C=C/c2ccc(O)c(O)c2)c1 [[…]] | 1 ×10⁻⁶ cm/s |
| COc1ccc([C@@H]2CC(=O)c3c(O)cc(O[C@@H]4O[C@H](CO)[C@@H](O)[C@H](O)[C@H]4O[C@@H]4O[C@@H](C)[C@H](O)[C@@H](O)[C@H]4O)cc3O2)cc1O [NEOHESPERIDIN] | < 1 ×10⁻⁶ cm/s |
| O=c1c(O)cc([C@H]2Oc3cc(O)cc(O)c3C[C@H]2O)cc2c([C@H]3Oc4cc(O)cc(O)c4C[C@@H]3O)cc(O)c(O)c12 [THEAFLAVINE] | < 1 ×10⁻⁶ cm/s |
| C[C@@H]1O[C@@H](OC[C@H]2O[C@@H](Oc3c(-c4ccc(O)c(O)c4)oc4cc(O)cc(O)c4c3=O)[C@H](O)[C@@H](O)[C@@H]2O)[C@H](O)[C@H](O)[C@H]1O [RUTIN] | < 1 ×10⁻⁶ cm/s |
| O=c1ccc2ccc(O)c(O)c2o1 [DAPHNETIN] | 3.8 ×10⁻⁶ cm/s |
| O=C(O)c1ccccc1O [SALICYLIC ACID] | 1.8 ×10⁻⁶ cm/s |
| O=c1ccn([C@H]2C[C@H](O)[C@@H](CO)O2)c(=O)[nH]1 [DEOXYURIDINE] | < 1 ×10⁻⁶ cm/s |
| CSCCCN=C=S [IBERVERIN] | 9.7 ×10⁻⁶ cm/s |
| C=C1CC[C@H](O)C/C1=C/C=C1\CCC[C@]2(C)[C@@H]([C@H](C)/C=C/[C@H](C)C(C)C)CC[C@@H]12 [ERGOCALCIFEROL] | < 1 ×10⁻⁶ cm/s |
| O=C(O)c1cccc(O)c1O [PYR[…]] | < 1 ×10⁻⁶ cm/s |
| CC(=O)Nc1ccccc1O [O-ACETAMIDOPHENOL] | < 1 ×10⁻⁶ cm/s |

| Structure (SMILES) | Papp |
| --- | --- |
| C/C=C1\[C@H]2C=C(C)C[C@]1(N)c1ccc(=O)[nH]c1C2 [HUPERZINE A] | 8.1 ×10⁻⁶ cm/s |
| CCCCC[C@H](O)/C=C/C1=C(CCCCCCC(=O)O)C(=O)CC1 [PROSTAGLANDIN B1] | < 1 ×10⁻⁶ cm/s |
| O=C(O)c1cccnc1C(=O)O [QUINOLINIC ACID] | < 1 ×10⁻⁶ cm/s |
| CC[C@H]1CN2CC[C@]3(C(=O)Nc4ccccc43)[C@@H]2C[C@@H]1/C(=C\OC)C(=O)OC [RHYNCHOPHYLLINE] | 6.5 ×10⁻⁶ cm/s |
| C=C1CC[C@H](O)C/C1=C/C=C1\CCC[C@]2(C)[C@@H]([C@H](C)CCCC(C)C)CC[C@@H]12 [CHOLECALCIFEROL] | < 1 ×10⁻⁶ cm/s |
| O=C(CCc1ccc(O)cc1)c1c(O)cc(O)cc1O[C@@H]1O[C@H](CO)[C@@H](O)[C@H](O)[C@H]1O [PHLORIDZIN] | 1.4 ×10⁻⁶ cm/s |
| CC(/C=C/C=C(\C)C(=O)O[C@@H]1O[C@H](CO[C@@H]2O[C@H](CO)[C@@H](O)[C@H](O)[C@H]2O)[C@@H](O)[C@H](O)[C@H]1O)=C\C=C\C=C(C)\C=C\C=C(/C)C(=O)O[C@@H]1O[C@H](CO[C@@H]2O[C@H](CO)[C@@H](O)[C@H](O)[C@H]2O)[C@@H](O)[C@H](O)[C@H]1O [CROCIN] | 6.1 ×10⁻⁶ cm/s |
| C[C@@H]1Cc2c(Cl)cc(C(=O)N[C@@H](Cc3ccccc3)C(=O)O)c(O)c2C(=O)O1 [[…]] | 1.6 ×10⁻⁶ cm/s |
| C=CC(C)=CCC=C(C)C [CIS BETA OCIMENE] | 3.9 ×10⁻⁶ cm/s |
| CC(C)=CCC/C(C)=C/C=C/C(C)=C/C=C/C(C)=C/C=C/C=C(C)/C=C/C=C(C)/C=C/C=C(\C)CCC=C(C)C [LYCOPENE] | < 1 ×10⁻⁶ cm/s |
| OCC(O)Cc1ccc2c(c1)OCO2 (centres unmarked) [SAFROLGLYCOL] | 1.7 ×10⁻⁶ cm/s |
| O=C(/C=C/c1ccc(O)c(O)c1)O[C@H](Cc1ccc(O)c(O)c1)C(=O)O [ROSMARINIC ACID] | 3.4 ×10⁻⁶ cm/s |
| CCCCCCCCCCCCCCCCCCCC(=O)O [[…]] | < 1 ×10⁻⁶ cm/s |
| CC(C)Nc1nc(N)nc(Cl)n1 [DEETHYLATRAZINE] | 6.8 ×10⁻⁶ cm/s |
| C[C@H]1O[C@H](O[C@H]2[C@H](O)[C@@H](O)[C@@H](O)[C@H](O)[C@@H]2O)[C@@H](N)C[C@@H]1NC(=N)C(=O)O [KASUGAMYCIN HYDROCHLORIDE] | < 1 ×10⁻⁶ cm/s |
| O=C(/C=C/c1ccc(O)c(O)c1)O[C@@H]1C[C@](O)(C(=O)O)C[C@@H](O)[C@H]1O [CHLOROGENIC ACID] | < 1 ×10⁻⁶ cm/s |
| CO[C@H]1[C@@H](O)[C@@H](C)O[C@H](O[C@H]2[C@H](Oc3cccc4c(O)c5c(=O)oc6ccc(C)c7c(=O)oc(c34)c5c67)O[C@H](C)[C@H](O)[C@@H]2O)[C@@H]1O [CHARTREUSIN] | 4 ×10⁻⁶ cm/s |
| Nc1ncnc2c1ncn2[C@@H]1O[C@H](CO)[C@@H](O)[C@H]1O [ADENOSINE] | < 1 ×10⁻⁶ cm/s |
| CC1=C(O)C(=O)[C@@H]2O[C@@H]2C1=O [TERREIC ACID] | 6.8 ×10⁻⁶ cm/s |
| N[C@@H](Cn1ccc(=O)[nH]c1=O)C(=O)O [WILLARDIINE] | < 1 ×10⁻⁶ cm/s |
| C[N+]1([O-])CCC[C@@H]1c1cccnc1 (some centres unmarked) [NICOTINE N'-OXIDE] | 2.8 ×10⁻⁶ cm/s |

Same assay, conditions: PAMPA, PAMPA-BBB Pe, Table S2: compounds exhibiting moderate to high PAMPA-BBB permeability

| Structure (SMILES) | Papp |
| --- | --- |
| COc1cc2c(c(OC)c1OC)-c1c(cc(OC)c(OC)c1OC)C[C@H](C)[C@H](C)C2 [S[…]] | 171 ×10⁻⁶ cm/s |
| CCOC(=O)c1c(C)cc(O)cc1O [ETHYL ORSELLINATE] | 137 ×10⁻⁶ cm/s |
| COc1ccc(Cc2nccc3cc(OC)c(OC)cc23)cc1OC [PAPAVERINE HYDROCHLORIDE] | 165 ×10⁻⁶ cm/s |
| O=C1c2c(O)cc(O)cc2O[C@@H](c2ccc(O)cc2)[C@@H]1O [AROMADENDRINE] | 58 ×10⁻⁶ cm/s |
| Cc1ccnc(N)c1 [AMINOPICOLINE] | 13 ×10⁻⁶ cm/s |
| COC(=O)C1=CO[C@@H](C)[C@@H]2CN3CC[C@@]4(C(=O)Nc5ccccc54)[C@@H]3CC12 (some centres unmarked) [MITRAPHYLLINE] | 117 ×10⁻⁶ cm/s |
| O=C(/C=C/c1ccccc1)NCCO [IDROCILAMIDE] | 211 ×10⁻⁶ cm/s |
| CC1=C(O)C(=O)CO1 [NORFURONOL] | 47 ×10⁻⁶ cm/s |
| CC1=CCCC(C)(C)C12CCC(C)O2 (centres unmarked) [T[…]] | 141 ×10⁻⁶ cm/s |
| CCCCCCCCCCCCCC(=O)O[C@@H]1[C@@H](C)[C@@]2(O)[C@@H](C=C(CO)C[C@]3(O)C(=O)C(C)=C[C@@H]23)[C@@H]2C(C)(C)[C@]12OC(C)=O [PHORBOL MYRISTATE ACETATE] | 47 ×10⁻⁶ cm/s |
| CC1(C)C2=CCCC(C)(C)[C@]23CC[C@H]1C3 [ISOLONGIFOLENE] | 87 ×10⁻⁶ cm/s |
| C[C@]12CC[C@H](O)C[C@H]1CC[C@@H]1[C@@H]2CC[C@]2(C)[C@@H](c3ccc(=O)oc3)C[C@H]3O[C@]132 [BUFOGENIN] | 115 ×10⁻⁶ cm/s |
| COc1cc2c(O)c3c(c(-c4ccc5c(c4)OCO5)c2cc1OC)C(=O)OC3 [DIPHYLLIN] | 187 ×10⁻⁶ cm/s |
| CCCCCc1cccc(=O)o1 [6-PENTYL-2H-PYRAN-2-ONE] | 52 ×10⁻⁶ cm/s |
| COc1ccc(-c2cnc(-c3cccnc3)o2)cc1 [O-[…]] | 262 ×10⁻⁶ cm/s |
| CCOC(=O)c1ccc(O)cc1 [ETHYL HYDROXYBENZOATE] | 43 ×10⁻⁶ cm/s |
| CC(C)[C@H]1C(=O)N[C@H](CO)Cc2c[nH]c3cccc(c23)N1C [[…]] | 47 ×10⁻⁶ cm/s |
| COC(=O)c1c(C)cc(O)cc1O [Methyl 2,4-dihydroxy-6-methylbenzoate] | 63 ×10⁻⁶ cm/s |
| CCCC[C@@H](C)/C=C(C)/C=C(\C)C(=O)NC1=C[C@@](O)(/C=C/C=C/C=C/C(=O)NC2=C(O)CCC2=O)[C@@H]2O[C@@H]2C1=O [MANUMYCIN A] | 64 ×10⁻⁶ cm/s |
| CC(C)=CCOc1c2occc2cc2ccc(=O)oc12 [PENTOSALEN] | 195 ×10⁻⁶ cm/s |
| COc1cc2c(cc1OC)OC(C)(C)C=C2 [PRECOCENE II] | 159 ×10⁻⁶ cm/s |
| C=C[C@H]1C[N@@]2CC[C@H]1C[C@@H]2[C@@H](O)c1ccnc2ccccc12 [CINCHONINE] | 22 ×10⁻⁶ cm/s |
| O=c1c2ccccc2oc2ccccc12 [XANTHONE] | 173 ×10⁻⁶ cm/s |
| CCCCC[C@H](O)CC(=O)CCc1ccc(O)c(OC)c1 [GINGEROL] | 69 ×10⁻⁶ cm/s |
| COc1ccc(-c2oc3cc(OC)c(OC)c(OC)c3c(=O)c2OC)cc1OC | 120 ×10⁻⁶ cm/s |
| COc1cccc(OC)c1C(=O)O [2,6-DIMETHOXYBENZOIC ACID] | 24 ×10⁻⁶ cm/s |
| CCN1C[C@@]2(COC)CCC(OC)[C@@]34[C@@H]1C([C@H](OC)[C@H]23)[C@@]1(OC(C)=O)C[C@H](OC)[C@@]2(O)C[C@H]4C1[C@H]2OC(=O)c1ccc(OC)cc1 (some centres unmarked) [BULLE[…]] | 17 ×10⁻⁶ cm/s |
| O=C(/C=C/c1ccc(O)cc1)c1ccc(O)cc1O [TRIHYDROXYCHALCONE] | 169 ×10⁻⁶ cm/s |
